# Target: 5'-nucleotidase (Homo sapiens, UniProt P21589)
# Assay: Biochemical Assay: Assay Reaction ConditionsAssay Volume: 70 μlReaction Volume: 50 μlCD73: 0.3208 nMAMP: 15 μMAssay Buffer: 2 5 mM Tris-HCL, pH 7.4, 0.01% Brij-35, 0.01% BSA, 5 mM MgCl2Assay Procedure:Used 384 clear plate.Made dose titration of testing compounds in assay buffer, 10 points ½ log titrations in duplicates starting at 100 μM.Added 25 μl of CD73 to each well for a final concentration of 320 pM.Incubated at RT for 15 min.Added 25 μl of AMP to each well for a final concentration of 15 μM.Incubated at RT for 10 min.Added 10 μl of Malachite Green Reagent A, incubate at RT for 10 min.Added 10 μl of Malachite Green Reagent B, incubate at RT for 45 min.Read the Absorbance on Envision plate reader using excitation filter: Cy5 620 nM.
# 5'-nucleotidase, sequence (P21589 whole entry): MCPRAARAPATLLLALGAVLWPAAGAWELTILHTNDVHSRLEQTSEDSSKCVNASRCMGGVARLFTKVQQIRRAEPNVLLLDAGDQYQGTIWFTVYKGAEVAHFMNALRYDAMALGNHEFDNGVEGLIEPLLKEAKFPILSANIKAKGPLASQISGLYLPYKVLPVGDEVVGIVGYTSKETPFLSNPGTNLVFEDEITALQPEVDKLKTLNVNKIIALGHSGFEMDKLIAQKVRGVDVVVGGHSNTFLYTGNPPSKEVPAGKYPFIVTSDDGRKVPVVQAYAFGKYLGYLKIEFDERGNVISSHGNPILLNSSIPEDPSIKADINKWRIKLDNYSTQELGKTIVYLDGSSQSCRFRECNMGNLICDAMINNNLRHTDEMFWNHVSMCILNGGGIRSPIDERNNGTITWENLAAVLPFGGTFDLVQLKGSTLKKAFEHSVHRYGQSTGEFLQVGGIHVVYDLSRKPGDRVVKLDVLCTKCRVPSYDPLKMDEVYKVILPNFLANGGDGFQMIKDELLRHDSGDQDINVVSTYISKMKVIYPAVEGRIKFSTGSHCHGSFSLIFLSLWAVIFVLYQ
row,Compound,IC50 [nM]
1,CNc1nc(Cl)nc2c1cnn2[C@@H]1O[C@H](COCP(=O)(O)O)[C@@H](O)[C@H]1O,< 500
2,O=P(O)(O)COC[C@H]1O[C@@H](n2ncc3c(NCc4cccc(Cl)c4Cl)nc(Cl)nc32)[C@H](O)[C@@H]1O,< 500
3,C[C@]1(O)C[C@@H](Nc2nc(Cl)nc3c2cnn3[C@@H]2O[C@H](COCP(=O)(O)O)[C@@H](O)[C@H]2O)C1,< 500

# Source: ChEMBL document CHEMBL5729192, “CD73 inhibitors” (2022)
